The IC50 is the concentration at which inhibition is half-maximal.

The structures appear in SMILES notation. A value given as a limit tells only on which side of the number the result lay.

Assay [1] concerns the target Vascular endothelial growth factor receptor 2 (Homo sapiens, UniProt P35968). The assay is described as follows: Displacement of kinase tracer 236 from recombinant human His-tagged KDR cytoplasmic domain (789 to 1356 residues) expressed in baculovirus-infected insect cells measured after 5 hrs by TR-FRET based LanthaScreen assay. In general terms: TR-FRET usually uses a lanthanide donor and a delayed reading to cut background.

Assay [2] addresses Macrophage colony-stimulating factor 1 receptor (Homo sapiens, UniProt P07333). As to the kind of experiment: Displacement of kinase tracer 236 from recombinant human His-tagged CSF1R cytoplasmic domain (538 to 910 residues) expressed in baculovirus-infected insect cells measured after 5 hrs by TR-FRET based LanthaScreen assay.

Vascular endothelial growth factor receptor 2, sequence (P35968 whole entry, the tested form may be a part): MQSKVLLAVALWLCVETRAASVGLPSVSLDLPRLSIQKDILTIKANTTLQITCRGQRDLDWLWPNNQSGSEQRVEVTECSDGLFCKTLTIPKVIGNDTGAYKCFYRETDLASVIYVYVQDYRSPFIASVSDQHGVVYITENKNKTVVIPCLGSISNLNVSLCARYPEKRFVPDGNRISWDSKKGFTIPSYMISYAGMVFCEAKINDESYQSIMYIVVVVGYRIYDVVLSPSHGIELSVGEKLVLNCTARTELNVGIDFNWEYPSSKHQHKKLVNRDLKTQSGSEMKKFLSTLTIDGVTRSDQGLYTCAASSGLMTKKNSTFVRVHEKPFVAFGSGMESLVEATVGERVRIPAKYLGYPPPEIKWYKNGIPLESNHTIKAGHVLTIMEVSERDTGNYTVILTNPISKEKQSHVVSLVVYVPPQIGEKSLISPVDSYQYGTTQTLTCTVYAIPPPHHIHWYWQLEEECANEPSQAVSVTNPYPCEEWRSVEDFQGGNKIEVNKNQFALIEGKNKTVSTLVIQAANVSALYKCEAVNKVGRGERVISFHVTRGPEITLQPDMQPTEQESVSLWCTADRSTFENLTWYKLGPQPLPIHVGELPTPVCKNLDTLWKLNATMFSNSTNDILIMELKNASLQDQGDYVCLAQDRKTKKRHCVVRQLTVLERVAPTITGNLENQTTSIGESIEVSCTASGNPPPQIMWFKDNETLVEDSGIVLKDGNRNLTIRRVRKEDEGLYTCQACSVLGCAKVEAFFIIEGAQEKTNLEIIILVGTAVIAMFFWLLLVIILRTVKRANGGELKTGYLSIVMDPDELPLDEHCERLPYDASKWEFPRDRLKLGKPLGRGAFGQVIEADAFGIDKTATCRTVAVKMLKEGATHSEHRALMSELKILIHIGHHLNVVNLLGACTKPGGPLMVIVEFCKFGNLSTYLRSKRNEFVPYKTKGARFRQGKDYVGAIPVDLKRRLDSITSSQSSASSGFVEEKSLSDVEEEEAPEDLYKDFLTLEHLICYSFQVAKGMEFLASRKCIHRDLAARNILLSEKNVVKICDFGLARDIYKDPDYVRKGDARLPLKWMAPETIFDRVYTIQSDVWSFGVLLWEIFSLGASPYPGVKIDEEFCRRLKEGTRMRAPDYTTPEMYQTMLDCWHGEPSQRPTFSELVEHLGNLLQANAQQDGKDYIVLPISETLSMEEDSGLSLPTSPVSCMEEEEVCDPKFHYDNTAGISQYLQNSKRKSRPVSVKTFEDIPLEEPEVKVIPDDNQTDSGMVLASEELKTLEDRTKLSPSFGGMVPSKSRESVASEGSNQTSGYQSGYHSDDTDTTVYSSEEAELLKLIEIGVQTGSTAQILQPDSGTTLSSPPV
Macrophage colony-stimulating factor 1 receptor, sequence (P07333 whole entry, the tested form may be a part): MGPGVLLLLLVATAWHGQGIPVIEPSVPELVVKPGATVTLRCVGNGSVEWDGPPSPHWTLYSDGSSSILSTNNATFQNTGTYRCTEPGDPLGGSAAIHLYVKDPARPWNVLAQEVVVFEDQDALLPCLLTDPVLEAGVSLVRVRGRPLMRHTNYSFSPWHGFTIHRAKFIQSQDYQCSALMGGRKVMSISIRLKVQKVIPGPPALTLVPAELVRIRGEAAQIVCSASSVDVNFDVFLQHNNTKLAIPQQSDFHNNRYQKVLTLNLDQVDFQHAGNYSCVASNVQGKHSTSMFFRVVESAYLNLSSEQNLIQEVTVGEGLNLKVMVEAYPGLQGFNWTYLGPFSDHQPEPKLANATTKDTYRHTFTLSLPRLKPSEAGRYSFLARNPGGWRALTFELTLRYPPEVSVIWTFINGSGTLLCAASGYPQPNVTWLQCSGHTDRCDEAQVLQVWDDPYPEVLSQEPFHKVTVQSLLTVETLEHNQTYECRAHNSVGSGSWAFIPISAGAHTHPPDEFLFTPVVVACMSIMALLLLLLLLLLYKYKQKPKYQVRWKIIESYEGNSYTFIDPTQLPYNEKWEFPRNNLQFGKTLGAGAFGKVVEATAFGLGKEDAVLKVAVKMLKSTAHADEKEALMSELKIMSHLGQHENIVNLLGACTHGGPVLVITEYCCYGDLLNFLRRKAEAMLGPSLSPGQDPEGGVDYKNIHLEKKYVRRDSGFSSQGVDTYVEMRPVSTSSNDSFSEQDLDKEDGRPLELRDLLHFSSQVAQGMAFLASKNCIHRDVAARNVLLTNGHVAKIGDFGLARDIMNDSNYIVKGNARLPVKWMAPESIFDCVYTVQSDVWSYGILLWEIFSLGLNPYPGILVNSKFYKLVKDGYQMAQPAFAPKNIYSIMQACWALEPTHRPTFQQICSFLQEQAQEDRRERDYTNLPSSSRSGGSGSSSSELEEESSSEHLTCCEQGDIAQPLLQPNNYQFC

With `Nc1ncnc2c3c(n(-c4ccc(NC(=O)Cc5cc(C(F)(F)F)ccc5F)cc4)c12)CCC3`, the values for the IC50 in assay [1] and in assay [2] were above 200 nM and below 10 nM, respectively.
In the case of `Nc1ncnc2c3c(n(-c4ccc(NC(=O)Cc5cc(C(F)(F)F)ccc5F)c(C(F)(F)F)c4)c12)CCC3`, in assay [2], the IC50 is above 200 nM.
As for `Nc1ncnc2c3c(n(-c4ccc(NC(=O)Cc5ccc(Cl)cc5F)cc4)c12)CCC3`, the half-maximal inhibitory concentration (IC50) was above 200 nM in assay [1] and below 10 nM in assay [2].
For `Nc1ncnc2c3c(n(-c4ccc(NC(=O)Cc5ccnc(C(F)(F)F)c5)cc4)c12)CCC3`, the 50% inhibitory concentration (IC50) in assay [1] was above 200 nM; in assay [2], below 10 nM.
The corresponding values for `COc1ccc(CC(=O)Nc2ccc(-n3c4c(c5ncnc(N)c53)CCC4)cc2OC)c(F)c1` are above 200 nM and below 10 nM.
Regarding `COc1cc(-n2c3c(c4ncnc(N)c42)CCC3)ccc1CC(=O)Nc1ccc(C(C)(C)O)nc1`, the IC50 in assay [2] was below 10 nM.
`COc1ncc(NC(=O)Cc2ccc(-n3c4c(c5ncnc(N)c53)CCC4)cc2)cc1F`: in assay [2], the IC50 was below 10 nM.
The same measure, in the same setting: the value for `COc1cc(-n2c3c(c4ncnc(N)c42)CCC3)ccc1CC(=O)Nc1cnn(C)c1` was above 200 nM.
Same read-out and setting: the value for `COc1cc(-n2c3c(c4ncnc(N)c42)CCC3)ccc1CC(=O)Nc1ccc(C2(O)COC2)cc1` was 10 to 200 nM.
On to `Nc1ncnc2c3c(n(-c4ccc(NC(=O)Cc5ccc(F)cc5)cc4)c12)CCC3`, for which the IC50 in assay [1] is above 200 nM; in assay [2], below 10 nM.
For the compound `Cn1ccc2cc(CC(=O)Nc3ccc(-n4c5c(c6ncnc(N)c64)COC5)cc3)ccc21`, the 50% inhibitory concentration (IC50) is above 200 nM in assay [1] and 10 to 200 nM in assay [2].
On to `COc1cc(-n2c3c(c4ncnc(N)c42)CCC3)ccc1CC(=O)Nc1ccc2c(c1)COC2(C)C`, for which the IC50 in assay [2] is below 10 nM.
Regarding `Cn1ccc2cc(CC(=O)Nc3ccc(-n4c5c(c6ncnc(N)c64)CCC5)cc3)ccc21`, the half-maximal inhibitory concentration (IC50) was above 200 nM in assay [1] and 4 nM in assay [2].
For the compound `COc1cc(CC(=O)Nc2ccc(-n3c4c(c5ncnc(N)c53)CCC4)cc2)ccc1F`, the concentration for half-maximal inhibition (IC50) was above 200 nM in assay [1] and 10 to 200 nM in assay [2].
The corresponding values for `Nc1ncnc2c3c(n(-c4ccc(NC(=O)Cc5cccc(OC(F)(F)F)c5)cc4)c12)CCC3` are above 200 nM and below 10 nM.
For the compound `Nc1ncnc2c3c(n(-c4ccc(NC(=O)Cc5ccn(C(F)F)n5)cc4)c12)CCC3`, the IC50 in assay [2] was 10 to 200 nM.
Regarding `COc1ccc(CC(=O)Nc2ccc(-n3c4c(c5ncnc(N)c53)CCC4)cc2)c(OC)c1`, the IC50 was above 200 nM in assay [1] and below 10 nM in assay [2].
In the case of `COc1cccc(CC(=O)Nc2ccc(-n3c4c(c5ncnc(N)c53)CCC4)cc2)c1`, the results for the IC50 in assay [1] and in assay [2] were above 200 nM and below 10 nM, respectively.
With `COc1cc(-n2c3c(c4ncnc(N)c42)CCC3)ccc1CC(=O)Nc1ccc(C(C)(C)O)cn1`, in assay [2], the IC50 was 10 to 200 nM.
For `Nc1ncnc2c3c(n(-c4ccc(NC(=O)Cc5cccc(Cl)c5F)cc4)c12)CCC3`, the IC50 in assay [1] was above 200 nM; in assay [2] it was below 10 nM.
Take `COc1cc(-n2c3c(c4ncnc(N)c42)CCC3)ccc1CC(=O)Nc1cnc(C(F)(F)F)nc1`: the IC50 in assay [2] lay within 10 to 200 nM.
Take `COc1cc(CC(=O)Nc2ccc(-n3c4c(c5ncnc(N)c53)CCC4)cc2)cc(OC)c1`: the 50% inhibitory concentration (IC50) in assay [1] and in assay [2] was above 200 nM in each case.
With `Nc1ncnc2c3c(n(-c4ccc(NC(=O)Cc5ccc(Cl)cc5)cc4)c12)CCC3`, the concentration for half-maximal inhibition (IC50) in assay [1] is above 200 nM; in assay [2] it was below 10 nM.
The corresponding values for `Nc1ncnc2c3c(n(-c4ccc(NC(=O)Cc5cc(Cl)ccc5F)cc4)c12)CCC3` are above 200 nM and below 10 nM.
With `Nc1ncnc2c3c(n(-c4ccc(NC(=O)Cc5cccc(O)c5)cc4)c12)CCC3`, the IC50 in assay [1] was above 200 nM.
For the compound `Nc1ncnc2c3c(n(-c4ccc(NC(=O)CC5CCNCC5)cc4)c12)CCC3`, the IC50 in assay [1] and in assay [2] was above 200 nM throughout.
For `COc1cc(-n2c3c(c4ncnc(N)c42)CCC3)ccc1CC(=O)Nc1nc(C(F)(F)F)cs1`, the half-inhibitory concentration (IC50) in assay [2] is below 10 nM.
Take `Nc1ncnc2c3c(n(-c4ccc(NC(=O)Cc5ccc(F)cc5C(F)(F)F)cc4)c12)CCC3`: the figures for the IC50 in assay [1] and in assay [2] were above 200 nM and below 10 nM, respectively.
`Nc1ncnc2c3c(n(-c4ccc(NC(=O)Cc5ccn(C(F)F)n5)cc4)c12)COC3`: the IC50 in assay [2] was above 200 nM.
As to `COc1cc(-n2c3c(c4ncnc(N)c42)COC3)ccc1CC(=O)Nc1ccc(C(F)(F)F)nc1`, the IC50 in assay [2] was below 10 nM.
On the same count and under the same terms, under `COc1cc(-n2c3c(c4ncnc(N)c42)CCC3)ccc1CC(=O)Nc1cc(C(F)(F)F)cnn1` stands below 10 nM; under `COc1cc(-n2c3c(c4ncnc(N)c42)CCC3)ccc1NC(=O)Cc1ccc(C2(O)COC2)cc1`, below 10 nM.
As for `Nc1ncnc2c3c(n(-c4ccc(NC(=O)Cc5cccc(OC(F)F)c5)cc4)c12)CCC3`, the IC50 in assay [1] was above 200 nM; in assay [2], 10 to 200 nM.
`Nc1ncnc2c3c(n(-c4ccc(NC(=O)Cc5cc(C(F)(F)F)ccn5)cc4)c12)CCC3`: the half-maximal inhibitory concentration (IC50) in assay [1] is above 200 nM; in assay [2], 10 to 200 nM.
As for `COc1cc(-n2c3c(c4ncnc(N)c42)CCC3)ccc1CC(=O)Nc1ccn(C)n1`, the IC50 in assay [2] was above 200 nM.
Regarding `COc1cc(NC(=O)Cc2ccc(-n3c4c(c5ncnc(N)c53)CCC4)cc2OC)cc(C(F)(F)F)c1`, the IC50 in assay [2] was below 10 nM.
For the compound `COc1cc(-n2c3c(c4ncnc(N)c42)COC3)ccc1CC(=O)Nc1ccccc1`, in assay [2], the IC50 was above 200 nM.
Regarding `Nc1ncnc2c3c(n(-c4ccc(NC(=O)Cc5ccc(OC(F)(F)F)cc5)cc4)c12)CCC3`, the IC50 in assay [1] was above 200 nM.
With `COc1cc(-n2c3c(c4ncnc(N)c42)CCC3)ccc1NC(=O)Cc1cc(C)ccc1F`, the IC50 in assay [1] was above 200 nM; in assay [2] it was below 10 nM.
The corresponding values for `Cc1ccc(F)c(CC(=O)Nc2ccc(-n3c4c(c5ncnc(N)c53)CCC4)cc2)c1` are above 200 nM and below 10 nM.
As to `Nc1ncnc2c3c(n(-c4ccc(CC(=O)Nc5cc(C(F)(F)F)ccc5F)cc4)c12)COC3`, the 50% inhibitory concentration (IC50) is above 200 nM in assay [1] and 10 to 200 nM in assay [2].
Turning to `Nc1ncnc2c3c(n(-c4ccc(NC(=O)Cc5ccc(C(F)(F)F)nc5)cc4)c12)CCC3`, the IC50 in assay [1] was above 200 nM; in assay [2] it was below 10 nM.
In the case of `Nc1ncnc2c3c(n(-c4ccc(NC(=O)Cc5ccccc5)cc4)c12)CCC3`, the 50% inhibitory concentration (IC50) in assay [1] is above 200 nM; in assay [2], 10 to 200 nM.
Turning to `COc1cc(F)c(CC(=O)Nc2ccc(-n3c4c(c5ncnc(N)c53)CCC4)cc2)c(F)c1`, the figures for the IC50 in assay [1] and in assay [2] were 10 to 200 nM and below 10 nM, respectively.
In the case of `COc1ccc(CC(=O)Nc2ccc(-n3c4c(c5ncnc(N)c53)CCC4)cc2)cc1`, the half-maximal inhibitory concentration (IC50) is above 200 nM in assay [1] and below 10 nM in assay [2].
As to `COc1cc(-n2c3c(c4ncnc(N)c42)CCC3)ccc1CC(=O)Nc1ccc2nonc2c1`, the IC50 in assay [2] is below 10 nM.
For the compound `COc1ccc(CC(=O)Nc2ccc(-n3c4c(c5ncnc(N)c53)CCC4)cc2)cn1`, the IC50 in assay [1] was above 200 nM; in assay [2] it was below 10 nM.
In the case of `COc1ccc(CC(=O)Nc2ccc(-n3c4c(c5ncnc(N)c53)CCC4)cc2)cc1F`, the IC50 is above 200 nM in assay [1] and below 10 nM in assay [2].
The corresponding values for `COc1ccc(CC(=O)Nc2ccc(-n3c4c(c5ncnc(N)c53)CCC4)cc2)c(F)c1` are above 200 nM and below 10 nM.
The corresponding values for `Nc1ncnc2c3c(n(-c4ccc(NC(=O)Cc5ccc(Cl)c(Cl)c5)cc4)c12)CCC3` are above 200 nM and below 10 nM.
The corresponding values for `COc1ccc(CC(=O)Nc2ccc(-n3c4c(c5ncnc(N)c53)CCC4)cc2)nc1` are above 200 nM and 10 to 200 nM.
On to `COc1cc(-n2c3c(c4ncnc(N)c42)CCC3)ccc1CC(=O)Nc1ccnn1C`, for which the half-inhibitory concentration (IC50) in assay [2] is above 200 nM.
For the compound `COc1cc(-n2c3c(c4ncnc(N)c42)CCC3)ccc1CC(=O)Nc1cnn(C(F)F)c1`, in assay [2], the IC50 was in the range of 10 to 200 nM.
As for `COc1cc(-n2c3c(c4ncnc(N)c42)CCC3)ccc1CC(=O)Nc1cnc(OC)c(F)c1`, in assay [2], the IC50 was below 10 nM.
Regarding `Nc1ncnc2c3c(n(-c4ccc(NC(=O)Cc5ccccc5)c(F)c4)c12)COC3`, the half-inhibitory concentration (IC50) in assay [1] and in assay [2] was above 200 nM throughout.
Regarding `Cc1ccc(F)c(CC(=O)Nc2ccc(-n3c4c(c5ncnc(N)c53)COC4)cc2)c1`, the figures for the IC50 in assay [1] and in assay [2] were above 200 nM and 10 to 200 nM, respectively.
For the compound `Nc1ncnc2c3c(n(-c4ccc(NC(=O)Cc5ccc(F)cc5Br)cc4)c12)CCC3`, the concentration for half-maximal inhibition (IC50) is above 200 nM in assay [1] and below 10 nM in assay [2].
As for `Nc1ncnc2c3c(n(-c4ccc(NC(=O)Cc5cccc(Cl)c5)cc4)c12)CCC3`, the IC50 in assay [1] is above 200 nM; in assay [2], below 10 nM.
With `COc1ccc(NC(=O)Cc2ccc(-n3c4c(c5ncnc(N)c53)CCC4)cc2OC)nn1`, the 50% inhibitory concentration (IC50) in assay [2] is below 10 nM.
Turning to `COc1cc(-n2c3c(c4ncnc(N)c42)CCC3)ccc1CC(=O)Nc1ccc(C(C)(C)OC)nc1`, the IC50 in assay [2] was below 10 nM.
With `Nc1ncnc2c3c(n(-c4ccc(NC(=O)c5c[nH]c6ccccc56)cc4)c12)CCC3`, the IC50 in assay [1] and in assay [2] was above 200 nM each time.
With `Nc1ncnc2c3c(n(-c4ccc(NC(=O)Cc5cc(C(F)(F)F)ccc5F)c(F)c4)c12)COC3`, the results for the IC50 in assay [1] and in assay [2] were above 200 nM and 10 to 200 nM, respectively.
The corresponding values for `COc1ccc(CC(=O)Nc2ccc(-n3c4c(c5ncnc(N)c53)CCC4)cc2F)c(F)c1` are above 200 nM and 10 to 200 nM.
In the case of `COc1cc(-n2c3c(c4ncnc(N)c42)CCC3)ccc1CC(=O)Nc1ccc(C(C)(C)C)cc1`, the IC50 in assay [2] is below 10 nM.
Consider `Nc1ncnc2c3c(n(-c4ccc(NC(=O)Cc5ccccc5)cc4F)c12)CCC3`, for which the IC50 was above 200 nM in assay [1] and 47 nM in assay [2].
For `COc1ccc(CC(=O)Nc2ccc(-n3c4c(c5ncnc(N)c53)CCC4)cc2)cc1Br`, the 50% inhibitory concentration (IC50) in assay [1] and in assay [2] was below 10 nM in each case.
In the case of `Nc1ncnc2c3c(n(-c4ccc(NC(=O)Cc5cc(C(F)(F)F)ccc5F)c(F)c4)c12)CCC3`, the figures for the IC50 in assay [1] and in assay [2] were above 200 nM and 10 to 200 nM, respectively.
For `CNC(=O)c1cccc(NC(=O)Cc2ccc(-n3c4c(c5ncnc(N)c53)CCC4)cc2OC)c1`, the IC50 in assay [2] fell in the range of 10 to 200 nM.

The values above are taken from ChEMBL document CHEMBL4418299, “Compounds useful as csf1 modulators” (2016).
